Results from article PMC10709440, “High-throughput ligand profile characterization in novel cell lines expressing seven heterologous insect olfactory receptors for the detection of volatile plant biomarkers” (Scientific Reports, 2023).
Several values for one entry are separate records, joined by “and”; a condition that tells them apart may be missing. Equal values may be shown once. Read-outs that look alike come from different tables or passages of the source.

Key:
Drosophila OR49b = target: T1, Drosophila OR49b (Drosophila melanogaster, UniProt Q9V6H2); test: cell-based; conditions: for OR49b response (VUAA1-normalized) at 1 μM: VOC concentration 1 μM; for OR49b response (VUAA1-normalized) at 10 μM: VOC concentration 10 μM; for OR49b response (VUAA1-normalized) at 100 μM: VOC concentration 100 μM; for Average response: mean of biological replicates
T1 construct: expressed in transfected cells
T1 sequence (Q9V6H2 1-375): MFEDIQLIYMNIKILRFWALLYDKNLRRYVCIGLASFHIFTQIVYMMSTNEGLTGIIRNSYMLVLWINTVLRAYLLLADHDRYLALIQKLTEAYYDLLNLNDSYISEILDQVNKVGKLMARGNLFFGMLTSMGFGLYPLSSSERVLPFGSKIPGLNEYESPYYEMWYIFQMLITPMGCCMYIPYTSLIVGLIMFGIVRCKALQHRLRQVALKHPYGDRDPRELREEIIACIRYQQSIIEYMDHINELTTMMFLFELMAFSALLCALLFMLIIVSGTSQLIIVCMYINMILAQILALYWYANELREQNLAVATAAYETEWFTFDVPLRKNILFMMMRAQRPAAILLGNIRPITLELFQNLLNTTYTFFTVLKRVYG
T1 sequence (Q9VNB5 1-486 partner): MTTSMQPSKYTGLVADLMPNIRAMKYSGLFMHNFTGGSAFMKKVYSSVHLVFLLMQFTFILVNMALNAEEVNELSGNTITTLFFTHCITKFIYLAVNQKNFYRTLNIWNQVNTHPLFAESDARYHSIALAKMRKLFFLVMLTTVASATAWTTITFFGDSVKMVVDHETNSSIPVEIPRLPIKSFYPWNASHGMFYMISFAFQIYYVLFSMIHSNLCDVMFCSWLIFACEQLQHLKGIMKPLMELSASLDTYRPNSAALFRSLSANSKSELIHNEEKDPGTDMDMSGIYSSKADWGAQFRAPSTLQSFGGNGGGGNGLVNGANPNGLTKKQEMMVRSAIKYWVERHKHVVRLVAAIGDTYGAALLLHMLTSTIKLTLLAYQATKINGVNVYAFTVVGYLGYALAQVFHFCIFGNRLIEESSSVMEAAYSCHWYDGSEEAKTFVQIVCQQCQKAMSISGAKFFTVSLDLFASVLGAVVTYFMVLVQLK
How it was run: (§1)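 HEK293 lines stably expressing each Drosophila OR with GCaMP6, doxycycline-induced (1 μg/mL) 48 or 72 h. Fluorescence recorded 5 s baseline then 30 s after VOC injection at pH 7.3; ΔF=(FMAX−F0)/F0, normalized to 50 µM VUAA1 response per line, triplicate wells averaged; concentration series 0.01–100 μM.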

Drosophila OR98a = target: T2, Drosophila OR98a (Drosophila melanogaster, UniProt Q9VAZ3); test: Calcium ion fluorescence (GCaMP6) assay, OR98a stable HEK293 cell line; assay type: cell-based; conditions: for OR98a response (VUAA1-normalized) at 1 μM / OR98a response (VUAA1-normalized) at 10 μM / OR98a response (VUAA1-normalized) at 100 μM: OR98a cell line; for OR98a response (VUAA1-normalized) at 1 μM: VOC concentration 1 μM; for OR98a response (VUAA1-normalized) at 10 μM: VOC concentration 10 μM; for OR98a response (VUAA1-normalized) at 100 μM: VOC concentration 100 μM; for DF norm AVERAGE OR98a: 0.05 threshold, values below shown as 0
T2 construct: expressed in transfected cells
T2 sequence (Q9VAZ3 1-397): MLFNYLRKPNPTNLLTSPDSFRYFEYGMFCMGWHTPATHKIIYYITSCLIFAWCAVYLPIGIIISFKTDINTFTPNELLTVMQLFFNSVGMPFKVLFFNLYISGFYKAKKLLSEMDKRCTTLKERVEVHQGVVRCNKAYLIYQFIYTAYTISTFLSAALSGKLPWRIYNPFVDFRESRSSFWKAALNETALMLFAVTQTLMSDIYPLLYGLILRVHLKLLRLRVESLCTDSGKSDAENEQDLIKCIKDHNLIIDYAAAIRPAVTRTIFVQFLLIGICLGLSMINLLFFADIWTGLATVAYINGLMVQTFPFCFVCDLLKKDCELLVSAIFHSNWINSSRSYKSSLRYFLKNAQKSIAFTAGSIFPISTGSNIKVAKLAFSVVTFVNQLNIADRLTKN
T2 sequence (Q9VNB5 1-486 partner): T1 sequence (Q9VNB5 1-486 partner)
How it was run: as §1

[1] = HEK293, read-out: Average response
[2] = ligand concentration 1 (unit not given)
[3] = ligand concentration 10 (unit not given)
[4] = ligand concentration 100 (unit not given)
[5] = OR49b cell line, odorant cc. 1 µM
[6] = OR49b cell line, odorant cc. 10 µM
[7] = OR49b cell line, odorant cc. 100 µM
[8] = ligand concentration 100 (unit not given), 0.05 threshold, values below shown as 0
[9] = HEK293, read-out: OR98a Average response (VUAA1-normalized)
[10] = ligand concentration 1 (unit not given), 0.05 threshold, values below shown as 0
[11] = ligand concentration 10 (unit not given), 0.05 threshold, values below shown as 0

C=Cc1ccccc1 [styrene]
EC50 (Drosophila OR49b; AVERAGE EC50, OR49b, printed with 95% confidence interval, matches the average LOG EC50): 21.1 µM
EC50 (Drosophila OR49b; EC50 (fitted parameter), OR49b, fit of each biological replicate): 16.6 µM and 17.3 µM
EC50 (Drosophila OR49b; EC50, AVERAGE, OR49b, arithmetic average of 5 replicate EC50): 24.9 µM
EC50 (Drosophila OR49b; LOG EC50 (fitted parameter), OR49b, fit of each biological replicate, log of EC50, unit inferred): 46.9 µM
EC50 (Drosophila OR49b; OR49b cell line, fitted Hill equation, Hill coefficient constrained to 1, maximal response max 1, read-out: EC50): 21.1 µM
EC50 (Drosophila OR49b; OR49b, average of 5 biological replicates, read-out: LOG EC50, AVERAGE (converted)): 21.1 µM
EC50 (Drosophila OR49b; OR49b, fit of each biological replicate, log of EC50, unit inferred, read-out: LOG EC50 (fitted parameter) (converted)): 34.6 µM and 16.6 µM and 17.3 µM and 8.95 µM
EC50 (Drosophila OR49b; OR49b, fit of each biological replicate, read-out: EC50 (fitted parameter)): 34.6 µM and 46.9 µM and 8.95 µM
EC50 (Drosophila OR49b; OR49b, fit of the averaged curve, read-out: EC50, FITTED AVERAGE CURVE): 24.4 µM
activation at 1 µM (Drosophila OR98a; [1]): 4.43%
activation at 10 µM (Drosophila OR98a; [1]): 0%
activation at 100 µM (Drosophila OR98a; [1]): 1.16%
OR98a response (VUAA1-normalized) at 1 μM (Drosophila OR98a): 0.00
OR98a response (VUAA1-normalized) at 10 μM (Drosophila OR98a): 0.00
OR98a response (VUAA1-normalized) at 100 μM (Drosophila OR98a): 0.00
DF norm AVERAGE OR98a (Drosophila OR98a; [2]): 0
DF norm AVERAGE OR98a (Drosophila OR98a; [3]): 0
DF norm AVERAGE OR98a (Drosophila OR98a; [4]): 0

CCCCCCCCCCCCCC [tetradecane]
OR49b response (VUAA1-normalized) at 1 μM (Drosophila OR49b; OR49b cell line): 0.07
OR49b response (VUAA1-normalized) at 10 μM (Drosophila OR49b; OR49b cell line): 0.05
OR49b response (VUAA1-normalized) at 100 μM (Drosophila OR49b; OR49b cell line): 0.00
Average response (Drosophila OR49b; [5]): 0.07
Average response (Drosophila OR49b; [6]): 0.05
Average response (Drosophila OR49b; [7]): 0.0348
DF norm AVERAGE OR49b (Drosophila OR49b; ligand concentration 1 (unit not given), […]): 0.06864
DF norm AVERAGE OR49b (Drosophila OR49b; ligand concentration 10 (unit not given), […]): 0.05202
DF norm AVERAGE OR49b (Drosophila OR49b; [8]): 0
activation at 1 µM (Drosophila OR98a; [1]): 0%
activation at 10 µM (Drosophila OR98a; [1]): 12%
activation at 100 µM (Drosophila OR98a; [1]): 10%
activation at 1 µM (Drosophila OR98a; [9]): 0%
activation at 10 µM (Drosophila OR98a; [9]): 12%
activation at 100 µM (Drosophila OR98a; [9]): 10%
OR98a response (VUAA1-normalized) at 1 μM (Drosophila OR98a): 0.00
OR98a response (VUAA1-normalized) at 10 μM (Drosophila OR98a): 0.12
OR98a response (VUAA1-normalized) at 100 μM (Drosophila OR98a): 0.10
DF norm AVERAGE OR98a (Drosophila OR98a; [2]): 0
DF norm AVERAGE OR98a (Drosophila OR98a; [3]): 0.1151
DF norm AVERAGE OR98a (Drosophila OR98a; [4]): 0.09569

Cc1ccccc1 [toluene]
activation at 1 µM (Drosophila OR49b; HEK293, 1 μM VOC, 50 μM VUAA1 = 1, read-out: OR49b Average response (VUAA1-normalized)): 0%
activation at 10 µM (Drosophila OR49b; HEK293, 10 μM VOC, 50 μM VUAA1 = 1, read-out: OR49b Average response (VUAA1-normalized)): 0%
activation at 100 µM (Drosophila OR49b; HEK293, 100 μM VOC, 50 μM VUAA1 = 1, read-out: OR49b Average response (VUAA1-normalized)): 44%
OR49b response (VUAA1-normalized) at 1 μM (Drosophila OR49b; OR49b cell line): 0.00
OR49b response (VUAA1-normalized) at 10 μM (Drosophila OR49b; OR49b cell line): 0.00
OR49b response (VUAA1-normalized) at 100 μM (Drosophila OR49b; OR49b cell line): 0.44
Average response (Drosophila OR49b; [5]): 0.00
Average response (Drosophila OR49b; [6]): 0.00
Average response (Drosophila OR49b; [7]): 0.44
DF norm AVERAGE OR49b (Drosophila OR49b; [10]): 0
DF norm AVERAGE OR49b (Drosophila OR49b; [11]): 0
DF norm AVERAGE OR49b (Drosophila OR49b; ligand concentration 100 (unit not given), […]): 0.4351
activation at 1 µM (Drosophila OR98a; [1]): 0%
activation at 10 µM (Drosophila OR98a; [1]): 4%
activation at 100 µM (Drosophila OR98a; [1]): 3.33%
OR98a response (VUAA1-normalized) at 1 μM (Drosophila OR98a): 0.00
OR98a response (VUAA1-normalized) at 10 μM (Drosophila OR98a): 0.00
OR98a response (VUAA1-normalized) at 100 μM (Drosophila OR98a): 0.00
DF norm AVERAGE OR98a (Drosophila OR98a; [2]): 0
DF norm AVERAGE OR98a (Drosophila OR98a; [3]): 0
DF norm AVERAGE OR98a (Drosophila OR98a; [4]): 0

CCCCCCCCCCC [undecane]
OR49b response (VUAA1-normalized) at 1 μM (Drosophila OR49b; OR49b cell line): 0.00
OR49b response (VUAA1-normalized) at 10 μM (Drosophila OR49b; OR49b cell line): 0.00
OR49b response (VUAA1-normalized) at 100 μM (Drosophila OR49b; OR49b cell line): 0.00
Average response (Drosophila OR49b; [5]): 0.00
Average response (Drosophila OR49b; [6]): 0.00
Average response (Drosophila OR49b; [7]): 0.0367
DF norm AVERAGE OR49b (Drosophila OR49b; [10]): 0
DF norm AVERAGE OR49b (Drosophila OR49b; [11]): 0
DF norm AVERAGE OR49b (Drosophila OR49b; [8]): 0
activation at 1 µM (Drosophila OR98a; [1]): 2.26%
activation at 10 µM (Drosophila OR98a; [1]): 0%
activation at 100 µM (Drosophila OR98a; [1]): 8%
OR98a response (VUAA1-normalized) at 1 μM (Drosophila OR98a): 0.00
OR98a response (VUAA1-normalized) at 10 μM (Drosophila OR98a): 0.00
OR98a response (VUAA1-normalized) at 100 μM (Drosophila OR98a): 0.08
DF norm AVERAGE OR98a (Drosophila OR98a; [2]): 0
DF norm AVERAGE OR98a (Drosophila OR98a; [3]): 0
DF norm AVERAGE OR98a (Drosophila OR98a; [4]): 0.08228
